The values that follow come from patent US20090192176A1, “1H-PYRAZOLO[3,4-D]PYRIMIDINE, PURINE, 7H-PURIN-8(9H)-ONE, 3H-[1,2,3]TRIAZOLO[4,5-D]PYRIMIDINE, AND THIENO[3,2-D]PYRIMIDINE COMPOUNDS, THEIR USE AS mTOR KINASE AND PI3 KINASE INHIBITORS, AND THEIR SYNTHESES” (Wyeth, priority 2008, published 2009).

The target in assay [1] is T1, Human mTOR (Homo sapiens, UniProt P42345).
T1 construct: FLAG
The assay can be described thus: mTOR kinase assay (DELFIA format, purified enzyme). The assay is classed as biochemical. The conditions noted are these: His6-S6K substrate, read-out: TOR Kinase IC50. The procedure:
mTOR Kinase Assay Methods
Human mTOR assays (See Toral-Barza, et al. Biochem Biophys. Res. Commun. 2005 Jun. 24; 332(1):304-10) with purified enzyme are performed in 96-well plates by DELFIA format as follows. Enzymes are first diluted in kinase assay buffer (10 mM HEPES (pH 7.4), 50 mM NaCl, 50 mM β-glycerophosphate, 10 mM MnCl2, 0.5 mM DTT, 0.25 mM microcystin LR, and […]). To each well, 12 μL of the diluted enzyme is mixed briefly with 0.5 μL test inhibitor or control vehicle dimethylsulfoxide (DMSO). The kinase reaction is initiated by adding 12.5 μL kinase assay buffer containing ATP and His6-S6K to give a final reaction volume of 25 μL containing 800 ng/mL FLAG-TOR, […] and […]. The reaction plate is incubated for 2 hours (linear at 1-6 hours) at room temperature with gentle shaking and then terminated by adding 25 μL Stop buffer (20 mM HEPES (pH 7.4), 20 mM EDTA, 20 mM EGTA). The DELFIA detection of the phosphorylated (Thr-389) His6-S6K is performed at room temperature using a monoclonal anti-P(T389)-p70S6K antibody (1A5, Cell Signaling) labeled with Europium-N1-ITC (Eu) (10.4 Eu per antibody, PerkinElmer). The DELFIA Assay buffer and Enhancement solution can be purchased from PerkinElmer. 45 μL of the terminated kinase reaction mixture is transferred to a MaxiSorp plate (Nunc) containing 55 μL PBS. The His6-S6K is allowed to attach for 2 hours after which the wells are aspirated and washed once with PBS. 100 μL of DELFIA Assay buffer with 40 ng/mL Eu-P(T389)-S6K antibody is added. The antibody binding is continued for 1 hour with gentle agitation. The wells are then aspirated and washed 4 times with PBS containing 0.05% Tween-20 (PBST). 100 μL of DELFIA Enhancement solution is added to each well and the plates are read in a PerkinElmer Victor model plate reader. Data obtained is used to calculate enzymatic activity and enzyme inhibition by potential inhibitors.

Assay [2] concerns the target PI3 Kinase α (Homo sapiens, UniProt P42336). The experiment in a line: Fluorescence polarization assay for PI3K. The assay is classed as biochemical. The method, then:
(§1) Fluorescence Polarization Assay for PI3K
(§2) This assay is used to determine the IC50 of compounds of the present invention as it identifies inhibitors of PI3 kinase by measuring inhibition.
(§3) Reaction Buffer: 20 mM HEPES, pH 7.5, 2 mM MgCl2, 0.05% CHAPS; and 0.01% BME (added fresh) Stop/Detection Buffer: 100 mM HEPES, pH 7.5, 4 mM EDTA, 0.05% CHAPS; ATP 20 mM in water; PIP2 (diC8, cat# P-4508) 1 mM in water (MW=856.5); GST-GRP 1.75 mg/mL or 1.4 mg/mL in 10% glycerol; Red detector (TAMRA) 2.5 μM; Plate: Nunc 384 well black polypropylene fluorescence plate.
(§4) The assay is run by placing 5 μL of diluted enzyme per well, then 5 μL of diluted compound (or 9.5 μL enzyme then 0.5 μL compound in DMSO) is added and mixed. Then, 10 μL substrate is added to start the reaction. The samples are incubated 30-60 minutes, then the reaction is stopped by adding 20 μL stop/detector mix. PI3K is diluted with reaction buffer (e.g., 5 μL or 7.5 μL PI3K into 620 μL reaction buffer), and 5 μL of diluted enzyme is used per well. 5 μL reaction buffer or drug diluted in buffer (e.g., 4 μL/100 so final DMSO is 1% in reaction) is added to each. Pipetting up and down mixes the samples. Alternatively, the enzyme can be diluted to 1215 μL. In this case 9.8 μL is added per well and 0.2 μL compound is added in DMSO. To prepare 1 mL of substrate solution, 955 μL reaction buffer, 40 μL PIP2, and 2.5 μL ATP are mixed. 10 μL of substrate is added to each well to start the reaction.
(§5) Stop/detector mix is prepared by mixing 4 μL Red detector and 1.6 μL or 2.0 μL GST-GRP with 1 mL Stop buffer, which results in 10 nM probe and 70 nM GST-GRP). 20 μL of the stop/detector mix is added to each well to stop the reaction. The plates are read after 30-90 minutes keeping the red probe solutions dark. For the zero time point, stop/detector mix is added to the enzyme just before adding substrate. For an extra control, stop/detector mix is added to buffer (no enzyme) and substrate or to just buffer (no substrate). […] The recommended reaction has 0.06 μL per 20 μL (0.015 μg/20 μL) or 0.01125 μg/15 μL or 0.75 μg/mL. Plates are read on machines with filters for Tamra. The units are mP with no enzyme controls reading app 190-220 mP units. Fully active enzyme reduces fluorescence polarization down to 70-100 mP after 30 minutes. An active compound raises the mP values halfway to control or to 120-150 mP units.

Assay [3] addresses PI3 Kinase γ (Homo sapiens, UniProt P48736). The assay can be described thus: Fluorescence polarization assay for PI3K. The assay is classed as biochemical. The method, then:
as §1, §2, §3, §4, §5

The subject of assay [4] is MDA468. The assay can be described thus: In vitro cell culture growth assay (MTS). The class given is cell-based. The conditions noted are these: Homo sapiens, 72 h, breast line MDA468, three days after drug treatment. The procedure:
In Vitro Cell Culture Growth Assay Methods:
Human tumor cell lines used include prostate lines LNCap and PC3MM2, breast lines MDA468, MCF7, renal line HTB44 (A498), colon line HCT116, and ovarian line OVCAR3. Cells were plated in 96-well culture plates. One day following plating, the inhibitors were added to cells. Three days after drug treatment, viable cell densities were determined by metabolic conversion (by viable cells) of the dye MTS, a well-established cell proliferation assay. The assays were performed using an assay kit purchased from Promega Corp. (Madison, Wis.) following the protocol supplied with the kit. The MTS assay results were read in a 96-well plate reader by measuring absorbance at 490 nm. The effect of each treatment was calculated as percent of control growth relative to the vehicle-treated cells grown in the same culture plate. The drug concentration that conferred 50% inhibition of growth was determined as IC50 (μg/ml).

Assay [5] has as its system LNCap. The assay can be described thus: In vitro cell culture growth assay (MTS). The assay is classed as cell-based. The conditions noted are these: Homo sapiens, 72 h, prostate line LNCap, three days after drug treatment.

Chain of PI3 Kinase α (P42336 whole entry): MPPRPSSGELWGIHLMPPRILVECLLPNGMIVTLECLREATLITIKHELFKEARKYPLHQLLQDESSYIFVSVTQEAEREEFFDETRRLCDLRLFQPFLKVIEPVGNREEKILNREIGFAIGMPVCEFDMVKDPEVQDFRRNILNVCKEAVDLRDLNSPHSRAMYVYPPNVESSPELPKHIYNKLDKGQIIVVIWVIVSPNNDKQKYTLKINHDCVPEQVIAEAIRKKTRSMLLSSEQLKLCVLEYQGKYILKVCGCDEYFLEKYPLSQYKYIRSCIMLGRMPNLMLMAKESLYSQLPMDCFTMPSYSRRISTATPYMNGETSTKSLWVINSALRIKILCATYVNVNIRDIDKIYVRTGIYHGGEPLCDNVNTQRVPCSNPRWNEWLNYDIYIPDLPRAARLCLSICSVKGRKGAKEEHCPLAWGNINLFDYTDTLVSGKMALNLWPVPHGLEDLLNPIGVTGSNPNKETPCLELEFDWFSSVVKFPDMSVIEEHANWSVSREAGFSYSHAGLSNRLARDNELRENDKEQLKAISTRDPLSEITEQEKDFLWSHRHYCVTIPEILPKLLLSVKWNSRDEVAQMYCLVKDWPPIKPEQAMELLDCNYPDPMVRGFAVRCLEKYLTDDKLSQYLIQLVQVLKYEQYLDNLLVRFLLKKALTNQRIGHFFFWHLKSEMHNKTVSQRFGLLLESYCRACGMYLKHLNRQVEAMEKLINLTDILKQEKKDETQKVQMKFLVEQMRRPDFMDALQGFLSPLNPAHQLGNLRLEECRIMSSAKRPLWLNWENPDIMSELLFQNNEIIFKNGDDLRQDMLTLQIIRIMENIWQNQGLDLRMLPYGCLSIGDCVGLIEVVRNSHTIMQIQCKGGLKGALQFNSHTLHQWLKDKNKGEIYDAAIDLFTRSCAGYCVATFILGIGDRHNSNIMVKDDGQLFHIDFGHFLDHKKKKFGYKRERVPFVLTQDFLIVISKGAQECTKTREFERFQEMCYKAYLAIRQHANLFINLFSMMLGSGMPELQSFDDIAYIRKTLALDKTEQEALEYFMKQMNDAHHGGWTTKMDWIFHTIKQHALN
Chain of PI3 Kinase α (P27986 whole entry partner): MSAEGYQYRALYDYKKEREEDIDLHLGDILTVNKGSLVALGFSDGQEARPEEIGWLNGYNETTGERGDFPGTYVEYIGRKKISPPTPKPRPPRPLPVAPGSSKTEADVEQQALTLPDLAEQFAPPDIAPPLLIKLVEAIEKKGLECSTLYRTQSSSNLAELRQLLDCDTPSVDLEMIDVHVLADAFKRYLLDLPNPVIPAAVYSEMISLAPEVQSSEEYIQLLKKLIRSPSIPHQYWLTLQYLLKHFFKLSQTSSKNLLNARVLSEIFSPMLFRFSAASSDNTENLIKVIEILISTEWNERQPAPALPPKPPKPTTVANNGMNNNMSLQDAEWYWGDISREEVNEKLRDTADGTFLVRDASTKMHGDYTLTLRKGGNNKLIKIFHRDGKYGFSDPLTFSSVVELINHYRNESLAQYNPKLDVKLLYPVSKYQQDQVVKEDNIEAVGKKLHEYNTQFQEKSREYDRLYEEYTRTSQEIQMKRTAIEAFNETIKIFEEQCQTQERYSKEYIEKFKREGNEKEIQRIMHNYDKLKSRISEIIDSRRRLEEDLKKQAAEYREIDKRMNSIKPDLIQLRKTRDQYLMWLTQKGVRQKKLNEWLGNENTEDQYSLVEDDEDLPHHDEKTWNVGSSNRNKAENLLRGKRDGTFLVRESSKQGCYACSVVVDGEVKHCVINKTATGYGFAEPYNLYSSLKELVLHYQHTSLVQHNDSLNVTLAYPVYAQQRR
Chain of PI3 Kinase γ (P48736 whole entry): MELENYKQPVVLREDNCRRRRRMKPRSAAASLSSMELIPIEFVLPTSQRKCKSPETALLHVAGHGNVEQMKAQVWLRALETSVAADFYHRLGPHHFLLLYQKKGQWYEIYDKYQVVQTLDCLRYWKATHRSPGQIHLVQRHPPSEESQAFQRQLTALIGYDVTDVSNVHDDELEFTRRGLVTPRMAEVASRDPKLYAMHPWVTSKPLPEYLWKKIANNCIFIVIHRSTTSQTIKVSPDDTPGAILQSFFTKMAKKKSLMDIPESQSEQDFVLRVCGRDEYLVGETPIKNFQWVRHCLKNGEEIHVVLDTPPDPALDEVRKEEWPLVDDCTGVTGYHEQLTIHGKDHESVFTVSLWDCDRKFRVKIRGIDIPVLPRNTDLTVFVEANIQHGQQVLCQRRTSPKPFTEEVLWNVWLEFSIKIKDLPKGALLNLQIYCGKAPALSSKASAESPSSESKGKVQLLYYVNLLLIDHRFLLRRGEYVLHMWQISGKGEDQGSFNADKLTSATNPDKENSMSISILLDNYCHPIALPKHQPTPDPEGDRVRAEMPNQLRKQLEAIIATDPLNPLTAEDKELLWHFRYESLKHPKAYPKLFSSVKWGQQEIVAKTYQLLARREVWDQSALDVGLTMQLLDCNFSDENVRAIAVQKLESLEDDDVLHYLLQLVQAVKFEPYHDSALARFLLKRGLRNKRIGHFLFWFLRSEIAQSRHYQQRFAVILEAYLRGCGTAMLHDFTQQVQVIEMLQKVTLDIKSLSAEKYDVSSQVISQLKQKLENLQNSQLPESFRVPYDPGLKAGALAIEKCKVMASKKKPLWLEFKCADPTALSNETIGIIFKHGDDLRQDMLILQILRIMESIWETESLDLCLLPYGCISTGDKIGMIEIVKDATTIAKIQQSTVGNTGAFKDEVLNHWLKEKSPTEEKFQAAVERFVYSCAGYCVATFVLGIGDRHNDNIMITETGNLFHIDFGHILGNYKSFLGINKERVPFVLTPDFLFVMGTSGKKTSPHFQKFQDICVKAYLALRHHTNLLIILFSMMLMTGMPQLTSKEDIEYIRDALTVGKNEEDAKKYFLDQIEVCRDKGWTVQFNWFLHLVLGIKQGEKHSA

Turning to `Oc1cccc(-c2nc(C3=CCOCC3)c3cnn(-c4ccccc4)c3n2)c1` [Compound 1, 3-[4-(3,6-dihydro-2H-pyran-4-yl)-1-phenyl-1H-pyrazolo[3,4-d]pyrimidin-6-yl]phenol], the IC50 in assay [1] was determined as 17 nM; in assay [2] it was 48 nM; in assay [3], 1890 nM; in assay [4], 8250 nM; in assay [5] it was 2800 nM.
In the same order, the values of `Oc1cccc(-c2nc(C3CCOCC3)c3cnn(-c4ccccc4)c3n2)c1` [Compound 2, 3-[1-phenyl-4-(tetrahydro-2H-pyran-4-yl)-1H-pyrazolo[3,4-d]pyrimidin-6-yl]phenol] are 670 nM, 855 nM, above 10000 nM, 50000 nM and 11000 nM.
For `CC(=O)Nc1ccc(-c2nc(C3=CCOCC3)c3cnn(C4CCN(Cc5ccccc5)CC4)c3n2)cc1` [Compound 3, N-{4-[1-(1-benzylpiperidin-4-yl)-4-(3,6-dihydro-2H-pyran-4-yl)-1H-pyrazolo[3,4-d]pyrimidin-6-yl]phenyl}acetamide] the same measures were 230 nM, 3090 nM, 3020 nM, 11000 nM and 5000 nM.
In the same order, the values of `CNC(=O)Nc1ccc(-c2nc(C3=CCOCC3)c3cnn(C4CCN(Cc5cccnc5)CC4)c3n2)cc1` [Compound 4, 1-(4-{4-(3,6-dihydro-2H-pyran-4-yl)-1-[1-(pyridin-3-ylmethyl)piperidin-4-yl]-1H-pyrazolo[3,4-d]pyrimidin-6-yl}phenyl)-3-methylurea] are 17 nM, 2820 nM, 3220 nM, 4200 nM and 900 nM.
As to `CNC(=O)Nc1ccc(-c2nc(C3=CCOCC3)c3cnn(C4CCN(C(=O)c5cccnc5)CC4)c3n2)cc1` [Compound 5, 1-(4-{4-(3,6-dihydro-2H-pyran-4-yl)-1-[1-(pyridin-3-ylcarbonyl)piperidin-4-yl]-1H-pyrazolo[3,4-d]pyrimidin-6-yl}phenyl)-3-methylurea], the IC50 in assay [1] came out at 8.4 nM; in assay [2], 2100 nM; in assay [3] it was 1180 nM; in assay [4], 4000 nM; in assay [5], 2800 nM.
In the same order, the values of `CNC(=O)Nc1ccc(-c2nc(C3=CCOCC3)c3cnn(CC(F)(F)F)c3n2)cc1` [Compound 6, 1-{4-[4-(3,6-dihydro-2H-pyran-4-yl)-1-(2,2,2-trifluoroethyl)-1H-pyrazolo[3,4-d]pyrimidin-6-yl]phenyl}-3-methylurea] are 2.4 nM, 212 nM, 3030 nM, 950 nM and 260 nM.
In the same order, the values of `O=C(NCCF)Nc1ccc(-c2nc(C3=CCOCC3)c3cnn(CC(F)(F)F)c3n2)cc1` [Compound 7, 1-{4-[4-(3,6-dihydro-2H-pyran-4-yl)-1-(2,2,2-trifluoroethyl)-1H-pyrazolo[3,4-d]pyrimidin-6-yl]phenyl}-3-(2-fluoroethyl)urea] are 1.4 nM, 2330 nM, 1010 nM, 220 nM and 72 nM.
For `O=C(Nc1ccc(-c2nc(C3=CCOCC3)c3cnn(CC(F)(F)F)c3n2)cc1)Nc1cccnc1` [Compound 8, 1-{4-[4-(3,6-dihydro-2H-pyran-4-yl)-1-(2,2,2-trifluoroethyl)-1H-pyrazolo[3,4-d]pyrimidin-6-yl]phenyl}-3-pyridin-3-ylurea] the same measures were 0.75 nM, 66 nM, above 10000 nM, 7000 nM and 380 nM.
Take `Oc1cccc(-c2nc(C3=CCOCC3)c3ncn(CCN4CCCCC4)c3n2)c1` [Compound 46, 3-[6-(3,6-dihydro-2H-pyran-4-yl)-9-(2-piperidin-1-ylethyl)-9H-purin-2-yl]phenol]: the 50% inhibitory concentration (IC50) in assay [1] is above 4000 nM; in assay [2], 1350 nM; in assay [3], 15000 nM.
With `Oc1cccc(-c2nc(C3=CCOCC3)c3nnn(C4CCN(Cc5ccccc5)CC4)c3n2)c1` [Compound 47, 3-[3-(1-benzylpiperidin-4-yl)-7-(3,6-dihydro-2H-pyran-4-yl)-3H-[1,2,3]triazolo[4,5-d]pyrimidin-5-yl]phenol], the IC50 was 230 nM in assay [1], 998 nM in assay [2] and 1500 nM in assay [3].
In the same order, the values of `Oc1cccc(-c2nc(C3=CCOCC3)c3nn[nH]c3n2)c1` [Compound 48, 3-[7-(3,6-dihydro-2H-pyran-4-yl)-3H-[1,2,3]triazolo[4,5-d]pyrimidin-5-yl]phenol] are 32 nM, 93 nM and 257 nM.
In the case of `OCc1cccc(-c2nc(C3=CCOCC3)c3nn[nH]c3n2)c1` [Compound 49, {3-[7-(3,6-dihydro-2H-pyran-4-yl)-3H-[1,2,3]triazolo[4,5-d]pyrimidin-5-yl]phenyl}methanol], the results for the IC50 in assay [1], in assay [2] and in assay [3] were 340 nM, 390 nM and 1040 nM, respectively.
In the same order, the values of `Oc1cncc(-c2nc(C3=CCOCC3)c3nn[nH]c3n2)c1` [Compound 50, 5-[7-(3,6-dihydro-2H-pyran-4-yl)-3H-[1,2,3]triazolo[4,5-d]pyrimidin-5-yl]pyridin-3-ol] are 360 nM, 78 nM and 100 nM.
Consider `O=c1[nH]c2nc(-c3cccc(O)c3)nc(C3=CCOCC3)c2[nH]1` [Compound 67, 6-(3,6-dihydro-2H-pyran-4-yl)-2-(3-hydroxyphenyl)-7,9-dihydro-8H-purin-8-one], for which the IC50 in assay [1] is 280 nM; in assay [2] it was 169 nM; in assay [3], 414 nM; in assay [4] it was above 10000 nM.
